Literature values in PubChem BioAssay AID1259409 (Chemical Carcinogenesis Research Information System (CCRIS), 2018).

System: rodent chemically induced tumor inhibition, incidence and multiplicity
Assay: CCRIS tumor inhibitor studies
Conditions: Route [Inhibitor]: ORAL

For `Cc1c(C)c2c(c(C)c1O)CC[C@@](C)(CCC[C@H](C)CCC[C@H](C)CCCC(C)C)O2`, the “tumour outcome (control, treated, inhibition, significance)” value (Carcinogen: 3,2-DIMETHYL-4-AMINOBIPHENYL, 13394-86-0, Dose [Inhibitor]: 0, 1% IN BASAL DIET BEGINNING POST CARCINOGEN TREATMENT AND CONTINUING FOR 40 WK (STUDY DURATION: 60 WK), Species: RAT, Strain/Sex: F344/MALE, Target Tissue: Type of Lesion: PANCREAS: ACINAR CELL NODULE, Dose [Carcinogen]: 50 MG/KG 1/2 WK FOR 20 WK TO RATS MAINTAINED ON ETHINYL ESTRADIOL CONTAINING DIET (0.75 PPM) FOR 1 WK CYCLED WITH ETHINY, Promoter: ETHINYL ESTRADIOL, 57-63-6) is given as 4/10 (40%), 5/12 (42%), -5%, not significant, the “tumour outcome (control, treated, inhibition, significance)” value (Carcinogen: 3,2-DIMETHYL-4-AMINOBIPHENYL, 13394-86-0, Dose [Inhibitor]: 0, 1% IN BASAL DIET BEGINNING POST CARCINOGEN TREATMENT AND CONTINUING FOR 40 WK (STUDY DURATION: 60 WK), Species: RAT, Strain/Sex: F344/MALE, Target Tissue: Type of Lesion: PROSTATE: CARCINOMA, Dose [Carcinogen]: 50 MG/KG 1/2 WK FOR 20 WK TO RATS MAINTAINED ON ETHINYL ESTRADIOL CONTAINING DIET (0.75 PPM) FOR 1 WK CYCLED WITH ETHINY, Promoter: ETHINYL ESTRADIOL, 57-63-6) is given as 5/10 (50%), 6/12 (50%), 0%, not significant and the “tumour outcome (control, treated, inhibition, significance)” value (Carcinogen: 4-NITROQUINOLINE 1-OXIDE, 56-57-5, Dose [Inhibitor]: 25.5, 550.9 MG/KG IN DIET FOR DURATION OF STUDY (STUDY DURATION: 23 WK), Species: MOUSE, Strain/Sex: DDY/MALE, Target Tissue: Type of Lesion: LUNG: TUMOR, Dose [Carcinogen]: 10 MG/KG BW SUSPENDED IN OLIVE OIL AND CHOLESTEROL (20:1, W/W) ONCE, Promoter: NONE USED) is given as 6/11 (55%), 4/11 (36%), 36%, not significant. For the same compound, the “tumour outcome (control, treated, inhibition, significance)” value (Carcinogen: 4-NITROQUINOLINE 1-OXIDE, 56-57-5, Dose [Inhibitor]: EXCESSIVE VITAMIN E (DOSE NOT STATED) IN THE DIET FOR 4 WK POST CARCINOGEN DOSE (STUDY DURATION: 23 WK), Species: MOUSE, Strain/Sex: DDY/MALE, Target Tissue: Type of Lesion: LUNG: TUMOR, Dose [Carcinogen]: 10 MG/KG BW ONCE, Promoter: GLYCEROL, 56-81-5) was 9/11 (82%), 5/11 (45%), 45%, not calculated, the “tumour outcome (control, treated, inhibition, significance)” value (Carcinogen: 4-NITROQUINOLINE 1-OXIDE, 56-57-5, Dose [Inhibitor]: EXCESSIVE VITAMIN E (DOSE NOT STATED) IN THE DIET FOR 23 WK POST CARCINOGEN DOSE (STUDY DURATION: 23 WK), Species: MOUSE, Strain/Sex: DDY/MALE, Target Tissue: Type of Lesion: LUNG: TUMOR, Dose [Carcinogen]: 10 MG/KG BW ONCE, Promoter: GLYCEROL, 56-81-5) was 9/11 (82%), 2/9 (22%), 73%, not calculated and the “tumour outcome (control, treated, inhibition, significance)” value (Carcinogen: 7,12-DIMETHYLBENZ[A]ANTHRACENE, 57-97-6, Dose [Inhibitor]: 0, 3.349 UMOL/G IN DIET FOR DURATION OF STUDY (STUDY DURATION: 18 WK), Species: RAT, Strain/Sex: SPRAGUE-DAWLEY/FEMALE, Target Tissue: Type of Lesion: MAMMARY GLAND: TUMOR, Dose [Carcinogen]: 50 MG/KG IN SESAME OIL ONCE, Promoter: NONE USED) was 88%, 79%, 10%, not significant. For the same compound, the “tumour outcome (control, treated, inhibition, significance)” value (Carcinogen: 7,12-DIMETHYLBENZ[A]ANTHRACENE, 57-97-6, Dose [Inhibitor]: 0.2% IN DIET FROM WEANING ONWARD (STUDY DURATION: 6 MO AFTER CARCINOGEN ADMINISTRATION), Species: RAT, Strain/Sex: SPRAGUE-DAWLEY/FEMALE, Target Tissue: Type of Lesion: MAMMARY GLAND: TUMOR, Dose [Carcinogen]: 10 MG/RAT IN 1 ML STRIPPED CORN OIL SINGLE DOSE ON D 50 FOLLOWING 24 HR FASTING PERIOD, Promoter: NONE USED) was 70%, 70%, 0%, not calculated, the “tumour outcome (control, treated, inhibition, significance)” value (Carcinogen: 7,12-DIMETHYLBENZ[A]ANTHRACENE, 57-97-6, Dose [Inhibitor]: 0.2% IN DIET FROM WEANING ONWARD (STUDY DURATION: 6 MO AFTER CARCINOGEN ADMINISTRATION), Species: RAT, Strain/Sex: SPRAGUE-DAWLEY/FEMALE, Target Tissue: Type of Lesion: MAMMARY GLAND: TUMOR, Dose [Carcinogen]: 10 MG/RAT IN 1 ML STRIPPED CORN OIL, SINGLE DOSE ON D 5 FOLLOWING 24 HR FASTING PERIOD, Promoter: NONE USED) was 40%, 37%, 8%, not calculated and the “tumour outcome (control, treated, inhibition, significance)” value (Carcinogen: 7,12-DIMETHYLBENZ[A]ANTHRACENE, 57-97-6, Dose [Inhibitor]: 0.2% IN DIET FROM WEANING ONWARD (STUDY DURATION: 6 MO AFTER CARCINOGEN ADMINISTRATION), Species: RAT, Strain/Sex: SPRAGUE-DAWLEY/FEMALE, Target Tissue: Type of Lesion: MAMMARY GLAND: TUMOR, Dose [Carcinogen]: 10 MG/RAT IN 1 ML STRIPPED CORN OIL, SINGLE DOSE ON D 50 FOLLOWING 24 HR FASTING PERIOD, Promoter: NONE USED) was 100%, 100%, 0%, not calculated. For the same compound, the “tumour outcome (control, treated, inhibition, significance)” value (Carcinogen: 7,12-DIMETHYLBENZ[A]ANTHRACENE, 57-97-6, Dose [Inhibitor]: 0.2% IN DIET, UNSATURATED FAT THROUGHOUT THE EXPERIMENT, (STUDY DURATION: 32 WK), Species: RAT, Strain/Sex: SPRAGUE-DAWLEY/FEMALE, Target Tissue: Type of Lesion: MAMMARY GLAND: PARENCHYMAL CARCINOMA, Dose [Carcinogen]: 10 MG IN 1 ML CORN OIL AT 50 D OF AGE CELL ONCE, Promoter: NONE USED) was 100%, 100%, 0%, not calculated and the “tumour outcome (control, treated, inhibition, significance)” value (Carcinogen: 7,12-DIMETHYLBENZ[A]ANTHRACENE, 57-97-6, Dose [Inhibitor]: 0.2% IN HIGH POLYUNSATURATED FAT DIET DAILY STARTING 29 D BEFORE CARCINOGEN TREATMENT AND CONTINUING FOR DURATION OF STU, Species: RAT, Strain/Sex: SPRAGUE-DAWLEY/FEMALE, Target Tissue: Type of Lesion: MAMMARY GLAND: ADENOCARCINOMA, Dose [Carcinogen]: 10 MG IN 1 ML STRIPPED CORN OIL ONCE AT 50 D OF AGE, Promoter: NONE USED) was 100%, 100%, 0%, not calculated.
